Laboratory results: PMC2935355 (PLoS ONE, 2010)
Read-outs that look alike come from different tables or passages of the source.

Target: T1, ClC-7 (Rattus norvegicus, UniProt P51799)
T1 construct: gene Clcn7; wt rat ClC-7 with C-terminal EGFP fusion; with Ostm1 (mouse)
T1 sequence (P51799 1-803): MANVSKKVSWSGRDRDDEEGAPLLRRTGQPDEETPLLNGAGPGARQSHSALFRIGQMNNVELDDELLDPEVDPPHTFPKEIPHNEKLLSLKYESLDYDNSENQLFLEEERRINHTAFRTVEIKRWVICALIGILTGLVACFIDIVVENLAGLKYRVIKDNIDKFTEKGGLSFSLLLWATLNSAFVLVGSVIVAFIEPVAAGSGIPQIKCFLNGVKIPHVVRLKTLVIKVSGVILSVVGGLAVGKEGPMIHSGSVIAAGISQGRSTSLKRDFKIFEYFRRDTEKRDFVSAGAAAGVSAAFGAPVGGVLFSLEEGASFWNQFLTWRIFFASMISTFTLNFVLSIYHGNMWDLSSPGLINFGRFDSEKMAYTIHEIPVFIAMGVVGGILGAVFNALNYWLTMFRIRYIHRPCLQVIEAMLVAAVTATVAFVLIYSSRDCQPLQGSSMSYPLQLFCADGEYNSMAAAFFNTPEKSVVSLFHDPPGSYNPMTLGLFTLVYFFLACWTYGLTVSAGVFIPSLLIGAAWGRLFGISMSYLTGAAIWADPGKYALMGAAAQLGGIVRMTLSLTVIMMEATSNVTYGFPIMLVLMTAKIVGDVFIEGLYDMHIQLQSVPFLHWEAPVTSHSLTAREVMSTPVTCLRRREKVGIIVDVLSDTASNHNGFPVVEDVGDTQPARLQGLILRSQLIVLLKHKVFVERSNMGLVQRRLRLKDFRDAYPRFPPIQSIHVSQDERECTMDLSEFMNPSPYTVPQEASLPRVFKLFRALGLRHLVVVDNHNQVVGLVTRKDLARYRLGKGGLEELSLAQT
T1 sequence (Q8BGT0 35-338 partner): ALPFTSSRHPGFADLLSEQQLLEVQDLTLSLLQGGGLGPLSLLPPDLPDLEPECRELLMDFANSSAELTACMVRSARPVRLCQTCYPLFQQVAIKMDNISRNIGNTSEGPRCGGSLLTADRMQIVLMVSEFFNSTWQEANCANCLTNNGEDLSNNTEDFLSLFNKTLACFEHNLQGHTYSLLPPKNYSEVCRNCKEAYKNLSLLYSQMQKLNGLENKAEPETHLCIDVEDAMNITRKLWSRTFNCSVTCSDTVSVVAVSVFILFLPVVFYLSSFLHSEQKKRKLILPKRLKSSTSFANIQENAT
Experiment: SSM-based electrophysiology on lysosomal membrane fraction of CHO cells, […] NaCl jump
Type: biochemical

Row | IC50 (read-out: IC50) [µM] | Compound | IC50 [µM]
1 | 39 ± 3.8 | O=S(=O)(O)c1cc(N=C=S)ccc1C=Cc1ccc(N=C=S)cc1S(=O)(=O)O [compound 1, 4,4′-diisothiocyanatostilbene-2,2′-disulfonic acid] | 
2 | 52 ± 8 | NS5818 [compound 2] | 
3 |  | O=C(O)c1cc([N+](=O)[O-])ccc1NCCCc1ccccc1 [compound 3, 5-nitro-2-(3-phenylpropylamino)benzoic acid] | 156 ± 7.8
